Consider 7 molecules from patent US10717730B1, “Dihydroisoquinoline compound” (SUZHOU ARK BIOPHARMACEUTICAL CO., LTD., priority 2017, dated 2020).

Data set [1] relates to HBsAg. The experiment in a line: HBsAg assay (secreted HBsAg by CLIA in HepG2.2.15 cells). It is filed as cell-based, hepatitis B virus (HBV). The settings on record: Hepatitis B virus, HepG2.2.15, 96 h. Summed up:
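HepG2.2.15 cells were exposed to a five-fold compound dilution series (0.5% DMSO final) for four days. Secreted HBsAg in supernatant quantified by chemiluminescence immunoassay; IC50 extrapolated from dose-response curves.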

Data set [2] is described as follows: Cytotoxicity CC50 (CellTiter-Glo). It is filed as cell-based. The settings on record: human; HepG2.2.15 cells, four days. As to the method: HepG2.2.15 cells were seeded into 96-well white plate at 5000 cells/well and treated with serially diluted compounds. The plates were incubated in incubator with 5% CO2 at 37° C. for four days. The plate was taken out of incubator and adapted to room temperature for 30 minutes, followed by adding 25 μl CellTiter-Glo (Promega) reagent into each well and votexed at room temperature before being measured for luminance using spectrometer (Tecan Infinite® F200). The CC50 of each compound was defined as the compound concentration at which the treated well's cell viability is 50% compared to that of the DMSO treated well.
For orientation: Cellular ATP, detected with luciferase, serves as a proxy for viable cell number.

By IC50 is commonly meant the concentration needed to halve the response being measured. The CC50 is the concentration that lowers cell viability or growth by half.

With `CCOC(=O)c1cn2c(cc1=O)-c1cc(OC)c(-c3ccc(=O)n(C(C)C(=O)OCC)c3)cc1CC2C(C)(C)C` (centres unmarked) [Example 74, Ethyl 6-(tert-butyl)-9-(1-(1-ethoxy-1-oxoprop-2-yl)-6-oxo-1,6-dihydro-pyridin-3-yl)-10-methoxy-2-oxo-6,7-dihydro-2H-pyrido[2,1-a]isoquinoline-3-carboxylate], inhibition in data set [1] was half-maximal at 0.129 µM (IC50). This molecule showed a CC50 at 4 days in data set [2] of 50 to 100 µM.
In the same order, the values of `CCOC(=O)CCCn1cc(-c2cc3c(cc2OC)-c2cc(=O)c(C(=O)OCC)cn2C(C(C)(C)C)C3)ccc1=O` (centres unmarked) [Example 75, Ethyl 6-(tert-butyl)-9-(1-(4-ethoxy-4-oxobutyl)-6-oxo-1,6-dihydropyridin-3-yl)-10-methoxy-2-oxo-6,7-dihydro-2H-pyrido[2,1-a]isoquinoline-3-carboxylate] are 0.466 µM and 50 to 100 µM.
For `CNc1ncc(-c2cc3c(cc2OC)-c2cc(=O)c(C(=O)O)cn2C(C(C)(C)C)C3)cn1` (centres unmarked) [Example 60, 6-(tert-butyl)-10-methoxy-9-(2-(methylamino)pyrimidin-5-yl)-2-oxo-6,7-dihydro-2H-pyrido[2,1-a]isoquinoline-3-carboxylic acid], in data set [1], it took 0.0001 µM to reach half-maximal inhibition (IC50). This molecule also yielded a CC50 at 4 days in data set [2] of 50 to 100 µM.
Consider `COc1cc2c(cc1-c1c(C)cnn1C)CC(C(C)(C)C)n1cc(C(=O)O)c(=O)cc1-2` (centres unmarked) [Example 19, 6-(tert-butyl)-9-(1,4-dimethyl-1H-pyrazol-5-yl)-10-methoxy-2-oxo-6,7-dihydro-2H-pyrido[2,1-a]isoquinoline-3-carboxylic acid], for which, in data set [1], the IC50 amounted to 0.068 µM. This molecule returned a CC50 at 4 days in data set [2] of 50 to 100 µM.
Molecule `COc1cc2c(cc1-c1nncn1CCCO)CC(C(C)(C)C)n1cc(C(=O)O)c(=O)cc1-2` (centres unmarked) [Example 31, 6-(tert-butyl)-9-(4-(3-hydroxypropyl)-4H-1,2,4-triazol-3-yl)-10-methoxy-2-oxo-6,7-dihydro-2H-pyrido[2,1-a]isoquinoline-3-carboxylic acid] showed an IC50 in data set [1] of 0.826 µM. The CC50 at 4 days in data set [2] is 50 to 100 µM.
In data set [1], `COc1cc2c(cc1-c1ccc(C)nc1)CC(C(C)(C)C)n1cc(C(=O)O)c(=O)cc1-2` (centres unmarked) [Example 37, 6-(tert-butyl)-10-methoxy-9-(6-methylpyridin-3-yl)-2-oxo-6,7-dihydro-2H-pyrido[2,1-a]isoquinoline-3-carboxylic acid] had an IC50 of 0.009 µM. In addition, in data set [2], the CC50 at 4 days lay in the range of 50 to 100 µM.
`CCOC(=O)CCn1cc(-c2cc3c(cc2OC)-c2cc(=O)c(C(=O)OCC)cn2C(C(C)(C)C)C3)ccc1=O` (centres unmarked) [Example 72, Ethyl 6-(tert-butyl)-9-(1-(3-ethoxy-3-oxopropyl)-6-oxo-1,6-dihydropyridin-3-yl)-10-methoxy-2-oxo-6,7-dihydro-2H-pyrido[2,1-a]isoquinoline-3-carboxylate] returned an IC50 in data set [1] of 0.565 µM. The same molecule came in with a CC50 at 4 days in data set [2] of 50 to 100 µM.
